{
  "source": "patent US8476320B2",
  "about": "“Formulations for parenteral administration of amino-substituted (E)-2, 6-dialkoxystyryl 4-substituted benzylsulfones” (Onconova Therapeutics, Inc, priority 2007, dated 2013)",
  "key": {"[1]": {"experiment": "Infusion bag compatibility study", "type": "physicochemical", "conditions": "75 mg/ml in PEG-400, bags containing 0.45% NaCl and 0.9% NaCl solutions", "experimental": "This example summarizes the results of a compatibility study of ON 01910.Na drug product (75 mg/ml in PEG-400) in IV Infusion Bags and Sets containing 0.45% NaCl and 0.9% NaCl solutions. The study consisted of preparing solutions of 80 mg of the ON 01910.Na in 250 ml 0.9% NaCl, and 800 mg of ON01910.Na in 250 ml 0.45% NaCl, and storing them in IV infusion bags for over 24 hours to determine if there is any product loss or instability. The solutions were also passed through infusion sets at a rate of approximately 2 ml per minute for 120 minutes and monitored for product loss or instability.\nThe samples were analyzed by HPLC for Assay, % Recovery, and Impurities. Appearance, Osmolarity, and pH of the solutions were also monitored throughout the study. […]\nFive ml of solution were removed from each bag for analysis at the following time points: T=0, 1 hr, 2 hr, 4 hr, 8 hr, and 24.5 hr. Appearance, Assay, % Impurities, % Recovery, Osmolarity, and pH were analyzed at each time points.\nResults are shown in Tables 10-13. % Recovery is the percentage of drug substance as compared to the calculated amount, while % T0 is defined as the percentage of drug substance as compared to drug substance at the initial timepoint. […]"}, "[2]": {"experiment": "Solubility of the Na salt"}, "[3]": {"experiment": "Accelerated stability in formulations containing PEG or PG and pH 10 buffer at 90° C. (HPLC)", "type": "physicochemical", "conditions": "for % ON 01910.Na Remaining: 90° C.", "experimental": "(§1) The effect of dielectric constant on the stabilization of ON 01910.Na, for example, was investigated, for example, by preparing formulations containing propylene glycol and PEG 400. The accelerated stability studies were preformed at 75 and 90° C. […] The following tables summarizes the results:\n(§2) The samples were evaluated by an HPLC assay utilizing a Phenomenex Luna C-18, 5 micron (4.6 mm×250 mm) reverse phase column at ambient conditions. The mobile phase consisted of 60%-0.1% Trifluoroacetic Acid in water: 40% Acetonitrile. The flow rate was set to 2.0 ml/minute and the eluant was monitored at 230 nm"}, "[4]": {"experiment": "Long term stability of 75 mg/mL ON 01910.Na in 100% PEG-400 (HPLC)", "type": "physicochemical", "conditions": "100% PEG-400 for clinical use", "experimental": "ON 01910.Na IV solution was manufactured at a concentration of 75 mg/mL in 100% PEG-400. The finished product consisted of 3 mL of drug product aseptically filled into\npresterilized 5 mL vials. The manufacturing was in compliance with current Good Manufacturing Practices regulations.\nVisual Inspection (a) The zero-time data point is the same as the release data generated from the manufactured clinical lot. Analytical Methods: (a) HPLC—Chromatography is performed using a Phenomenex Luna C-18 (2), 5 micron\n(4.6 mm×250 mm, PN 00G-4252-E0) column at ambient conditions. The mobile phase used is 60%-0.1% trifluoroacetic acid in water; 40% acetonitrile. The flow rate is set at 2.0 ml/min Injection volume is 50 μL. Detection is accomplished by means of a UV/VIS detector at 230, 254, and 320 nm. Instrument control and data acquisition is facilitated using a Waters Millennium (V 2.15) software package. The external calibration is obtained using ON 01910.Na standard solutions prepared in 50:50 acetonitrile:water. This analytical method was validated."}, "[5]": {"experiment": "Accelerated stability of ON 01910.Na in formulations containing PEG at 75° C. (HPLC)", "type": "physicochemical", "conditions": "for % ON 01910.Na Remaining: 75° C.", "experimental": "as §1, §2"}, "[6]": {"tested_on": "patients with advanced solid tumors", "experiment": "Phase I dose escalation study by 2-hour intravenous infusion", "type": "in vivo", "conditions": "iv 2 hour infusion, twice per week for 3 weeks, ten days off; no grade 2 or worse toxicities", "experimental": "Safety and efficacy of this formulation, for example, is tested in a Phase I clinical study, at The Johns Hopkins Sidney Kimmel Cancer Center, Baltimore, Md., i.e., “Phase I Dose Escalation Study Of ON 01910.Na By 2-Hour Intravenous Infusion In Patients With Advanced Solid Tumors”. U.S. FDA IND #66,780. The objectives of this study include an identification of a maximum tolerated dose (MTD) and a recommended dose for further clinical studies. A further object of the study is to establish a safety profile, i.e., to observe any toxicities. The patients in this study have advanced solid tumors that have failed conventional treatments, or for which no approved therapy exists. An object of the study is particularly to observe efficacy (anti-cancer effects).\nThe patients are administered the preferred formulation described herein of the ON 01910.Na drug (properly diluted in intravenous solution) over a two hour period, twice per week, for three weeks. The patients are subsequently observed for […], to constitute a four week treatment cycle.\nThis study started with a single patient at the first starting dose level of 80 mg per patient. If there is no grade 2 or worse drug-related toxicity (side effects) observed in the first four week cycle, then another patient may be dosed at the next higher dose level. The first patient was dosed at 80 mg per patient on Aug. 3, 2004. […]"}},
  "data": [
    {"smiles": "COc1cc(OC)c(/C=C/S(=O)(=O)Cc2ccc(OC)c(NCC(=O)[O-])c2)c(OC)c1.[Na+]", "note": "[ON 01910.Na, (E)-2,4,6-trimethoxystyryl-3-carboxymethylamino-4-methoxybenzylsulfone]", "values": [
      {"measurement": "stability in IV infusion bags", "setting": "[1]", "value": "stable over 24 hours"},
      {"measurement": "solubility", "setting": "[2]", "value": "very soluble"},
      {"measurement": "stability on adjusting the pH of the aqueous medium above 8", "setting": "[3]", "value": "further improved"},
      {"measurement": "% ON 01910.Na Remaining", "setting": "[3]; PEG:Buffer, After 72 hours", "value": 94.22, "unit": "%"},
      {"measurement": "% ON 01910.Na Remaining", "setting": "[3]; PEG:Buffer, Control", "value": 100.00, "unit": "%"},
      {"measurement": "% ON 01910.Na Remaining", "setting": "[3]; PEG:Water, After 72 hours", "value": 22.28, "unit": "%"},
      {"measurement": "% ON 01910.Na Remaining", "setting": "[3]; PEG:Water, Control", "value": 100.00, "unit": "%"},
      {"measurement": "% ON 01910.Na Remaining", "setting": "[3]; PG:Buffer, After 72 hours", "value": 79.62, "unit": "%"},
      {"measurement": "% ON 01910.Na Remaining", "setting": "[3]; PG:Buffer, Control", "value": 100.00, "unit": "%"},
      {"measurement": "% ON 01910.Na Remaining", "setting": "[3]; PG:Water, After 72 hours", "value": 15.79, "unit": "%"},
      {"measurement": "% ON 01910.Na Remaining", "setting": "[3]; PG:Water, Control", "value": 100.00, "unit": "%"},
      {"measurement": "% ON 01910.Na Remaining", "setting": "[3]; PH 10 buffer, After 72 hours", "value": 50.18, "unit": "%"},
      {"measurement": "% ON 01910.Na Remaining", "setting": "[3]; PH 10 buffer, Control", "value": 100.00, "unit": "%"},
      {"measurement": "% ON 01910.Na Remaining", "setting": "[3]; Water, After 72 hours", "value": 5.36, "unit": "%"},
      {"measurement": "% ON 01910.Na Remaining", "setting": "[3]; Water, Control", "value": 100.00, "unit": "%"},
      {"measurement": "expected degradation over a two year period", "setting": "[4]", "value": "not be any Significant Degradation"},
      {"measurement": "long term stability in the current formulation", "setting": "[4]", "value": "Extremely Stable"},
      {"measurement": "% ON 01910.Na Remaining", "setting": "[5]; 0% PEG, 0 D", "value": 100.00, "unit": "%"},
      {"measurement": "% ON 01910.Na Remaining", "setting": "[5]; 0% PEG, 0.25 D", "value": 86.47, "unit": "%"},
      {"measurement": "% ON 01910.Na Remaining", "setting": "[5]; 0% PEG, 2 D", "value": 11.20, "unit": "%"},
      {"measurement": "% ON 01910.Na Remaining", "setting": "[5]; 0% PEG, 7 D", "value": 0.47, "unit": "%"},
      {"measurement": "% ON 01910.Na Remaining", "setting": "[5]; 0% PEG, 14 D", "value": 0.47, "unit": "%"},
      {"measurement": "% ON 01910.Na Remaining", "setting": "[5]; 0% PEG, 28 D", "value": 0.02, "unit": "%"},
      {"measurement": "% ON 01910.Na Remaining", "setting": "[5]; 25% PEG, 0 D", "value": 100.00, "unit": "%"},
      {"measurement": "% ON 01910.Na Remaining", "setting": "[5]; 25% PEG, 0.25 D", "value": 98.12, "unit": "%"},
      {"measurement": "% ON 01910.Na Remaining", "setting": "[5]; 25% PEG, 2 D", "value": 66.89, "unit": "%"},
      {"measurement": "% ON 01910.Na Remaining", "setting": "[5]; 25% PEG, 7 D", "value": 42.13, "unit": "%"},
      {"measurement": "% ON 01910.Na Remaining", "setting": "[5]; 25% PEG, 14 D", "value": 32.03, "unit": "%"},
      {"measurement": "% ON 01910.Na Remaining", "setting": "[5]; 25% PEG, 28 D", "value": 29.80, "unit": "%"},
      {"measurement": "% ON 01910.Na Remaining", "setting": "[5]; 50% PEG, 0 D", "value": 100.00, "unit": "%"},
      {"measurement": "% ON 01910.Na Remaining", "setting": "[5]; 50% PEG, 0.25 D", "value": 100.32, "unit": "%"},
      {"measurement": "% ON 01910.Na Remaining", "setting": "[5]; 50% PEG, 2 D", "value": 94.76, "unit": "%"},
      {"measurement": "% ON 01910.Na Remaining", "setting": "[5]; 50% PEG, 7 D", "value": 86.06, "unit": "%"},
      {"measurement": "% ON 01910.Na Remaining", "setting": "[5]; 50% PEG, 14 D", "value": 75.80, "unit": "%"},
      {"measurement": "% ON 01910.Na Remaining", "setting": "[5]; 50% PEG, 28 D", "value": 68.73, "unit": "%"},
      {"measurement": "stability on addition of propylene glycol or PEG 400 to an aqueous formulation", "setting": "[5]; accelerated studies at 75 and 90° C.", "value": "drastically improved"},
      {"measurement": "dose that can be safely administered", "setting": "[6]", "value": "≥ 2080", "unit": "mg"}
    ]}
  ]
}
